Entries after “also recorded” stand apart in the source; their conditions may differ. Like-named read-outs stand apart in the source and are kept apart here. Where a SMILES comes first, the peptide text is derived from it.
Key:
[1] = system: resistance arteries; experiment: Wire myography: relaxation to dilator agonists after preconstriction with U46619 (Example 2); assay type: cell-based, human; details: median; for IC50 / Emax: Homo sapiens; for Emax: read-out: Emax (maximum relaxation after preconstriction with U46619)
[2] = system: small peripheral resistance vessels; experiment: Wire myography by rs9349379 genotype: vasodilator response to ACh; assay type: cell-based; details: Homo sapiens, 95% CI; for EC50: read-out: ACh pEC50 (converted)
[3] = molecular target: T1, ETA receptor (Homo sapiens, UniProt P25101); experiment: ET-1 cumulative concentration response curves after antagonist preincubation, Schild plot pA2 (Example 3); assay type: cell-based; details: microvessels pre-treated with antagonist
T1 construct: Small peripheral resistance vessels (<400 μm) were carefully dissected from fresh biopsies using a light microscope; from tissue; host or cells: small peripheral resistance arteries from gluteal skin fat biopsies of angina patients
T1 sequence (P25101 21-427): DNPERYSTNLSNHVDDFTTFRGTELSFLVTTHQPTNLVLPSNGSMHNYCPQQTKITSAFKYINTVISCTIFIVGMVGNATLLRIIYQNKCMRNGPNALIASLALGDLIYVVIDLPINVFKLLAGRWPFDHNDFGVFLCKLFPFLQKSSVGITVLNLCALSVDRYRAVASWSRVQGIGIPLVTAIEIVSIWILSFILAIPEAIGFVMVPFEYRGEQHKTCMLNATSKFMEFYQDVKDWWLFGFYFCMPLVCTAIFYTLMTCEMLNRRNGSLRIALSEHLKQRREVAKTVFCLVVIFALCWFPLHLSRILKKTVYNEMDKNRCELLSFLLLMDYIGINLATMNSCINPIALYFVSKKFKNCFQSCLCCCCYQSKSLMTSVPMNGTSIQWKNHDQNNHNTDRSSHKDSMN

[4] = molecular target: T1, ETA receptor; experiment: Paired ET-1 CCRCs with and without ETA antagonist, pKB by Schild regression (Examples 4 and 5); assay type: cell-based; details: for Kb: pKB
Protocol: (§1) Ex vivo pharmacological assessment of peripheral vascular function was performed on patients who volunteered to undergo a gluteal skin fat biopsy within 4 weeks of the invasive coronary function assessment. The biopsy was obtained under sterile conditions using local anaesthesia with lidocaine (2%). Small peripheral resistance vessels (<400 μm) were carefully dissected from fresh biopsies using a light microscope. About 2 mm length vessels were mounted on 40-μm stainless steel wires for isometric myography in multi-channel myograph chambers (DMT, Denmark) filled with physiological saline solution. […] This vascular biology sub-study was an extension of our work in INOCA subjects that was previously published in this journal.^31A The detailed methods are described in the Supplementary material online, Appendix.
(§2) The peripheral vascular sensitivity to ET-1 (pEC50) and maximum vasoconstriction to ET-1 (Eumax) were determined. For the antagonist studies, the affinity (KB) of BQ123 was first determined in paired vessels from individuals and calculated using Schild regression. The pKB (−log10 KB) values were compared between each genotype as an indicator of whether or not patients of different genotypes are likely to respond equally well to an ETA antagonist used clinically.

[5] = system: resistance arteries; experiment: Wire myography: contractile response to constrictor agonists, relative to KPSS (Example 2); assay type: cell-based, human; details: for Emax (percentage of maximum response to KPSS solution) / pEC50: median
[6] = system: small peripheral resistance vessels; experiment: Wire myography by rs9349379 genotype: vasoconstriction to ET-1; assay type: cell-based, human; details: 95% CI
Protocol: as §1, §2

[7] = system: human mammary resistance arteries; details: compared with bosentan; cited from earlier work
[8] = GTN half-life and remaining dose; details: human, in vivo, other: intra-arterial; after 10 min; read-out: share of the dose bioavailable
[9] = system: coronary microvascular endothelial function; details: 10 mg PO daily for 6 months; IC-ACh; cited from earlier work
[10] = subjects with low myocardial perfusion homogeneity; cited from earlier work
[11] = cited from earlier work
[12] = system: small peripheral resistance arteries; experiment: Reversal of an established ET-1-mediated vessel constriction, wire myography; assay type: cell-based, human; details: clinically relevant concentrations

## CC(=O)OCC[N+](C)(C)C [ACh, Acetylcholine]
[1]; MVA patients
  IC50: 0.0794 µM
  Emax: 77.6%
[1]; VSA patients
  IC50: 0.0794 µM
  Emax: 79%
[1]; control subjects
  IC50: 0.0501 µM
  Emax: 98.7%
  Emax (maximum relaxation after preconstriction with U46619): 98%
[2]; genotype AA
  Emax: 77.7%
  EC50: 0.0525 µM
[2]; genotype AG
  Emax: 80.2%
  EC50: 0.055 µM
[2]; genotype GG
  Emax: 92.5%
  EC50: 0.11 µM

## CC(C)C[C@@H]1NC(=O)[C@@H](C(C)C)NC(=O)[C@@H]2CCCN2C(=O)[C@@H](CC(=O)O)NC(=O)[C@@H](Cc2c[nH]c3ccccc23)NC1=O [BQ123] (HELM PEPTIDE1{L.[dW].[dD].P.[dV]}$PEPTIDE1,PEPTIDE1,1:R1-5:R2$$$V2.0)
[3]
  effect on the ET-1 constrictor response (shift of ET-1 CCRC): also inhibits the ET-1 response; also recorded: an effect comparable to that of zibotentan
[4]; all genotype groups
  effect on the ET-1 CCRC and constrictor responses: parallel rightward shift of the CCRC to ET-1 in all arteries; also recorded: fully blocked the constrictor responses in all of the groups
[4]; all genotypes pooled, mean (95% CI)
  Kb: 0.0295 µM
[4]; rs9349379 genotype AA, ±SEM
  Kb: 0.0851 µM
[4]; rs9349379 genotype AG, ±SEM
  Kb: 0.0162 µM
[4]; rs9349379 genotype GG, ±SEM
  Kb: 0.0389 µM

## CCCC[C@@H](NC(=O)[C@@H](Cc1cn(C(=O)OC)c2ccccc12)NC(=O)[C@H](CC(C)(C)C)NC(=O)N1[C@H](C)CCC[C@@H]1C)C(=O)O [BQ788]
[3]
  effect on the ET-1 constrictor response (shift of ET-1 CCRC): only minimal shift in the ET-1 response; also recorded: negligible effect on the ET-1 constrictor response

## CC[C@H](C)[C@H](NC(=O)[C@H](CC(=O)O)NC(=O)[C@H](CC(C)C)NC(=O)[C@H](Cc1c[nH]cn1)NC(=O)[C@@H]1CSSC[C@H](N)C(=O)N[C@@H](CO)C(=O)N[C@H]2CSSC[C@H](NC(=O)[C@H](CCC(=O)O)NC(=O)[C@H](CCCCN)NC(=O)[C@H](CC(=O)O)NC(=O)[C@H](CCSC)NC(=O)[C@H](CC(C)C)NC(=O)[C@H](CO)NC(=O)[C@H](CO)NC2=O)C(=O)N[C@@H](C(C)C)C(=O)N[C@@H](Cc2ccc(O)cc2)C(=O)N[C@@H](Cc2ccccc2)C(=O)N1)C(=O)N[C@H](C(=O)N[C@@H](Cc1c[nH]c2ccccc12)C(=O)O)[C@@H](C)CC [ET-1]
[5]; MVA patients
  Emax (percentage of maximum response to KPSS solution): 121%
  pEC50: 9.6
[5]; VSA patients
  Emax (percentage of maximum response to KPSS solution): 125%
  pEC50: 9.5
[5]; all groups
  sensitivity of resistance arteries to constrictor effects of ET-1 compared with U46619: around 50 fold
[5]; control subjects
  Emax (percentage of maximum response to KPSS solution): 100%
  pEC50: 9.3
[6]; genotype AA
  ET-1 Emax (maximum vasoconstriction): 122.3%
  ET-1 pEC50: 9.34
[6]; genotype AG
  ET-1 Emax (maximum vasoconstriction): 115.5%
  ET-1 pEC50: 9.45
[6]; genotype GG
  ET-1 Emax (maximum vasoconstriction): 129.7%
  ET-1 pEC50: 9.32

## CC(C)C[C@H](NC(=O)N1CCCCCC1)C(=O)N[C@H](Cc1cn(C)c2ccccc12)C(=O)N[C@H](Cc1ccccn1)C(=O)O [FR139317]
[7]
  blocking of ET-1 induced contractions: less effective than the dual ETAR/ETBR antagonist bosentan

## O=[N+]([O-])OCC(CO[N+](=O)[O-])O[N+](=O)[O-] [GTN, glyceryl trinitrate]
[8]
  bioavailability at 10 min: 3%

## CCCCC[C@H](O)/C=C/[C@@H]1[C@@H](C/C=C\CCCC(=O)O)[C@H]2CO[C@@H]1C2 [U46619]
[5]; MVA patients
  Emax (percentage of maximum response to KPSS solution): 143%
  pEC50: 8.0
[5]; VSA patients
  Emax (percentage of maximum response to KPSS solution): 141%
  pEC50: 7.5
[5]; control subjects
  Emax (percentage of maximum response to KPSS solution): 109%
  pEC50: 7.50

## CCCCN(CCCC)C(=O)CN1C[C@H](c2ccc3c(c2)OCO3)[C@@H](C(=O)O)[C@@H]1c1ccc(OC)cc1 [atrasentan]
[9]
  coronary microvascular endothelial function: improved coronary microvascular endothelial function

## COc1cc(OC)nc(O[C@H](C(=O)O)C(OC)(c2ccccc2)c2ccccc2)n1 [darusentan]
[10]
  flow homogeneity: increases flow homogeneity

## Cc1cc2c(cc1CC(=O)c1sccc1S(=O)(=O)Nc1onc(C)c1Cl)OCO2 [sitaxentan]
[11]; HFpEF patients, compared to placebo
  exercise time: increase in exercise time compared to placebo
[11]; in vivo
  hepatotoxicity: withdrawn from development owing to hepatotoxicity

## COc1nc(C)cnc1NS(=O)(=O)c1cccnc1-c1ccc(-c2nnco2)cc1 [zibotentan, N-(3-Methoxy-5-methylpyrazin-2-yl)-2-[4-(1,3,4-oxadiazol-2-yl)phenyl]pyridine-3-sulfonamide]
[12]
  reversal or inhibition of an established constrictor response to ET-1: concentration-dependent inhibition of an established constrictor response to ET-1; also recorded: fully reversed an established endothelin-1 vasoconstriction
[12]; listed as Zibotentan
  reversal or inhibition of an established constrictor response to ET-1: concentration-dependent inhibition of an established constrictor response to ET-1; also recorded: reversed ET-1-induced vasoconstriction independently of G allele status; also recorded: reversed an established ET-1-mediated vasoconstriction; also recorded: rapidly and fully reversed the established endothelin-1 constrictor response
